# Results: patent publication US20250312462A1, “PAK1 DEGRADERS AND METHODS OF USE THEREOF” (INSTITUTE FOR CANCER RESEARCH D/B/A THE RESEARCH INSTITUTE …, priority 2022, published 2025)
# Tests used:
# [1] = biological target: T1, Nluc-PAK1 (Homo sapiens, UniProt Q13153+Q96SW2); test: Nluc-PAK1 luciferase assay in HEK293 cells; format: cell-based
# T1 construct: […]; expressed in transfected cells
# Method: MCF7 ([…], CVCL_0031) were cultured in high-glucose DMEM medium (Gibco) supplemented with 10% fetal bovine serum (HyClone), 2 mM L-glutamine and 100 U/ml penicillin/streptomycin (Gibco). MOLT4 ([…], CVCL_0013) were cultured in RPMI 1640 medium (Gibco) supplemented with 10% fetal bovine serum and 2 mM L-glutamine. OVCAR3 ([…], CVCL_0465), Hey A8 ([…], CVCL_8878) and OMM1 ([…], CVCL_6939) were cultured in RPMI 1640 medium (Gibco) supplemented with 10% fetal bovine serum, 2 mM L-glutamine and 100 U/ml penicillin/streptomycin (Gibco). All cell lines were cultured at 37° C. in a humidified 5% CO2 incubator. HEK293 cells stably expressing Nluc-PAK1 were constructed by transfecting with the pFN31K Nluc-PAK1 expression vector (0.5 μg DNA per well) in 12-well plates using Lipofectamine™ 3000 (Invitrogen) according to the manufacturer's protocol. Transfected Nluc-PAK1 cells were cultured for 1 week in DMEM medium containing G418 (2 mg mL^−1) to select stable clones.
# HEK293 cells stably expressing pFN31K-Nluc-PAK1 were assayed for luciferase activity according to the manufacturer's Nano-Glo® Live Cell Assay System protocol (Promega). In brief, 25 μl of Nano-Glo® Live Cell Reagent was added per well and the plate was gently mixed by hand, then placed in a 37° C. luminometer for 10 minutes.
# To better quantify the effect of degrader treatment, HEK293 cells were transfected with an expression vector encoding nano-luciferase (Nluc)-tagged PAK1. The Nluc tag allows for luciferase-based quantitation of protein expression (England, et al. (2016) Bioconjug. Chem., 27:1175-1187). Nluc-PAK1 cells were treated with BJG-05-039 or its N-methylated analog, BJG-05-098, and PAK1 expression was assessed (FIG. 2D).
# [2] = biological target: MAP4K4 (Homo sapiens, UniProt O95819); test: KINOMEscan; conditions: read-out: Percent Control
# Method: (§1) The kinase engagement assay (KINOMEscan®) was performed by DiscoverX assessing binding abilities toward a set of kinases.
# [3] = biological target: CAMK2B (Homo sapiens, UniProt Q13554); test: KINOMEscan; conditions: read-out: Percent Control
# Method: as §1
# [4] = biological target: AXL (Homo sapiens, UniProt P30530); test: KINOMEscan; conditions: read-out: Percent Control
# Method: as §1
# [5] = biological target: GSK3A (Homo sapiens, UniProt P49840); test: KINOMEscan; conditions: read-out: Percent Control
# Method: as §1
# [6] = biological target: RSK3(Kin.Dom.2-C-terminal) (Homo sapiens, UniProt Q15349); test: KINOMEscan; conditions: read-out: Percent Control
# RSK3(Kin.Dom.2-C-terminal), sequence (Q15349 415-672 limits assumed): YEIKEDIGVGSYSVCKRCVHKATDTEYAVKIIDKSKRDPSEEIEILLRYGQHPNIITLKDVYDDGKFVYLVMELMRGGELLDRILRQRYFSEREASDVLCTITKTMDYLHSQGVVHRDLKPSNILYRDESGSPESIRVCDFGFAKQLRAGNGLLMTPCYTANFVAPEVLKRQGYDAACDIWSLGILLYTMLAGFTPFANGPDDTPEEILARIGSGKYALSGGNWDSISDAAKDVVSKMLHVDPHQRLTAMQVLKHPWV
# Method: as §1
# [7] = biological target: CAMK1 (Homo sapiens, UniProt Q14012); test: KINOMEscan; conditions: read-out: Percent Control
# CAMK1, sequence (Q14012 whole entry): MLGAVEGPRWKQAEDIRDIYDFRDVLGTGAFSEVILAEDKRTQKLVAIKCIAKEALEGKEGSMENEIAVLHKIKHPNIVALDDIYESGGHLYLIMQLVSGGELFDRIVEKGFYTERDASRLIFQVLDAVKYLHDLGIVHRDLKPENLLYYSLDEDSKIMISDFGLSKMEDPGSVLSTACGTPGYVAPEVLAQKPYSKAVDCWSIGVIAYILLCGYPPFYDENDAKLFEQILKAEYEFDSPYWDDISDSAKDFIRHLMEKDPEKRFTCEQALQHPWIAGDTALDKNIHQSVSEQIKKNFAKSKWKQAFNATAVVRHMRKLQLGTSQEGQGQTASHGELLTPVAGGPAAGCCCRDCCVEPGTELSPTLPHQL
# Method: as §1
# [8] = biological target: DRAK2 (Homo sapiens, UniProt O94768); test: KINOMEscan; conditions: read-out: Percent Control
# DRAK2, sequence (O94768 whole entry): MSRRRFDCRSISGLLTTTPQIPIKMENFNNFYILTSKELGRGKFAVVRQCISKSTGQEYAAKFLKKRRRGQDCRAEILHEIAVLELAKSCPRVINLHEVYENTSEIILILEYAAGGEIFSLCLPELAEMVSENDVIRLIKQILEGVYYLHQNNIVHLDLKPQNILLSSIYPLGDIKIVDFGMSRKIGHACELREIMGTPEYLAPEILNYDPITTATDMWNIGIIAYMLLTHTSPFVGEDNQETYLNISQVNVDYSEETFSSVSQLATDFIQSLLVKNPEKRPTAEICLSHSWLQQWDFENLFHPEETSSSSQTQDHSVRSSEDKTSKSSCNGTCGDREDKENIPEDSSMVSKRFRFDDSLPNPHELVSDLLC
# Method: as §1
# [9] = biological target: STK16 (Homo sapiens, UniProt O75716); test: KINOMEscan; conditions: read-out: Percent Control
# STK16, sequence (O75716 whole entry): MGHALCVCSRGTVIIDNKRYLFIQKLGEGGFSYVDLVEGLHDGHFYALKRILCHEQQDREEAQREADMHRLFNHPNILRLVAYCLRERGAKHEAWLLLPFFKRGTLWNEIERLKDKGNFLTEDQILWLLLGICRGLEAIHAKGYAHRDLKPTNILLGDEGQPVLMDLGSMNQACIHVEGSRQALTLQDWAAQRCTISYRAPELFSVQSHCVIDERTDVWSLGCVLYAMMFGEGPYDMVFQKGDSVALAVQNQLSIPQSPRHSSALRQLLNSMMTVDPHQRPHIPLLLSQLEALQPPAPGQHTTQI
# Method: as §1
# [10] = biological target: MLCK (Homo sapiens, UniProt Q32MK0); test: KINOMEscan; conditions: read-out: Percent Control
# Method: as §1
# [11] = biological target: MRCKB (Homo sapiens, UniProt Q9Y5S2); test: KINOMEscan; conditions: read-out: Percent Control
# Method: as §1
# [12] = biological target: MAP4K3 (Homo sapiens, UniProt Q8IVH8); test: KINOMEscan; conditions: read-out: Percent Control
# Method: as §1
# [13] = biological target: TGFBR2 (Homo sapiens, UniProt P37173); test: KINOMEscan; conditions: read-out: Percent Control
# Method: as §1
# [14] = biological target: RIOK3 (Homo sapiens, UniProt O14730); test: KINOMEscan; conditions: read-out: Percent Control
# Method: as §1
# [15] = biological target: ABL1(Q252H)-nonphosphorylated (Homo sapiens, UniProt P00519, Q252H); test: KINOMEscan; conditions: read-out: Percent Control
# Method: as §1
# [16] = biological target: FER (Homo sapiens, UniProt P16591); test: KINOMEscan; conditions: read-out: Percent Control
# Method: as §1
# [17] = biological target: BMX (Homo sapiens, UniProt P51813); test: KINOMEscan; conditions: read-out: Percent Control
# BMX, sequence (P51813 whole entry): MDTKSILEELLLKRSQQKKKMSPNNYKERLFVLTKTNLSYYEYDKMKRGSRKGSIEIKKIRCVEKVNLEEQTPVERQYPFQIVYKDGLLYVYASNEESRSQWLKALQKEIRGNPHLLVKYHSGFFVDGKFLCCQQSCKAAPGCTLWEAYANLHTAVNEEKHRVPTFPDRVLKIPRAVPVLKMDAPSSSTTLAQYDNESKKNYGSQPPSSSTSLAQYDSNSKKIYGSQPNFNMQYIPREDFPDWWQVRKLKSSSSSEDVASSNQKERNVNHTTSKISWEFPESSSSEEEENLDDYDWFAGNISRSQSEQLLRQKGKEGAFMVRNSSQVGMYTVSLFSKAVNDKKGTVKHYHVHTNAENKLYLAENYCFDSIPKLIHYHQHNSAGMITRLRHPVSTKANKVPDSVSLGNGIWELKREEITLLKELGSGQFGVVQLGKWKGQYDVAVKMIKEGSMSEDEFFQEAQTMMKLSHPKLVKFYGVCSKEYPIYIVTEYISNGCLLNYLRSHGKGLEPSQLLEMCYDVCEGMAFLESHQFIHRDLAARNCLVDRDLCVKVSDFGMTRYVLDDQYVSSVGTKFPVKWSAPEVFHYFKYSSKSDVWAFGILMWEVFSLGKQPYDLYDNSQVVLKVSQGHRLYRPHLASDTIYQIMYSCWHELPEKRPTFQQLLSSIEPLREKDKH
# Method: as §1
# [18] = biological target: MERTK (Homo sapiens, UniProt Q12866); test: KINOMEscan; conditions: read-out: Percent Control
# Method: as §1
# [19] = biological target: MST1 (Homo sapiens, UniProt Q13043); test: KINOMEscan; conditions: read-out: Percent Control
# Method: as §1
# [20] = tested on: FLT3(ITD, F691L); test: KINOMEscan; conditions: 10 μM
# Method: as §1
# [21] = biological target: MKNK2 (Homo sapiens, UniProt Q9HBH9); test: KINOMEscan; conditions: read-out: Percent Control
# Method: as §1
# [22] = biological target: VRK2 (Homo sapiens, UniProt Q86Y07); test: KINOMEscan; conditions: read-out: Percent Control
# VRK2, sequence (Q86Y07 whole entry): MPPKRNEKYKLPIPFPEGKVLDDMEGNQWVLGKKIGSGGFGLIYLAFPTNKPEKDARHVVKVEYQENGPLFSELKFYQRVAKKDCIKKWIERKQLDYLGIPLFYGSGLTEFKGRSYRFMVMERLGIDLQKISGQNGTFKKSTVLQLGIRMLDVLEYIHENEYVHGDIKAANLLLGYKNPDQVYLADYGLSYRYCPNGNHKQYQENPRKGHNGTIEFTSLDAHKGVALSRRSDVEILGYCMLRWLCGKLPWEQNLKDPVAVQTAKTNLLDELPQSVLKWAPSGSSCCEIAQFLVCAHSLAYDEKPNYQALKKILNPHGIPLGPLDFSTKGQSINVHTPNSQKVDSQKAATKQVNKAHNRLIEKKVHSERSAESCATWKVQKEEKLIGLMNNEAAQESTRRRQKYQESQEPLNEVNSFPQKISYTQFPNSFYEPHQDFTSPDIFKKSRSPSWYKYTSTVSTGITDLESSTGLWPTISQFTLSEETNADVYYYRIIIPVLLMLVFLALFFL
# Method: as §1
# [23] = biological target: LRRK2(G2019S) (Homo sapiens, UniProt Q5S007, G2019S); test: KINOMEscan; conditions: read-out: Percent Control
# Method: as §1
# [24] = biological target: MARK1 (Homo sapiens, UniProt Q9P0L2); test: KINOMEscan; conditions: read-out: Percent Control
# Method: as §1
# [25] = biological target: p38-gamma (Homo sapiens, UniProt P53778); test: KINOMEscan; conditions: read-out: Percent Control
# p38-gamma, sequence (P53778 whole entry): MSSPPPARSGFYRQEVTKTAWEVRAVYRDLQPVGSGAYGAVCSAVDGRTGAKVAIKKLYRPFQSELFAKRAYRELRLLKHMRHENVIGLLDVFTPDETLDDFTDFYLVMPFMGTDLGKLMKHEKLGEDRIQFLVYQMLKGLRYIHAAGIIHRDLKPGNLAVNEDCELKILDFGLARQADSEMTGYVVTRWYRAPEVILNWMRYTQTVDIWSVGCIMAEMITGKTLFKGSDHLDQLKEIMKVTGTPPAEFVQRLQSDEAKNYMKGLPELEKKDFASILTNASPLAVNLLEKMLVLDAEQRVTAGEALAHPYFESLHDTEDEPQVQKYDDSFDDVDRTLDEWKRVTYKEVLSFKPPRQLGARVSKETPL
# Method: as §1
# [26] = biological target: DLK (Homo sapiens, UniProt Q12852); test: KINOMEscan; conditions: read-out: Percent Control
# Method: as §1
# [27] = biological target: EGFR(E746-A750del) (Homo sapiens, UniProt P00533, DEL746-750); test: KINOMEscan; conditions: read-out: Percent Control
# Method: as §1
# T1 sequence (Q13153 whole entry): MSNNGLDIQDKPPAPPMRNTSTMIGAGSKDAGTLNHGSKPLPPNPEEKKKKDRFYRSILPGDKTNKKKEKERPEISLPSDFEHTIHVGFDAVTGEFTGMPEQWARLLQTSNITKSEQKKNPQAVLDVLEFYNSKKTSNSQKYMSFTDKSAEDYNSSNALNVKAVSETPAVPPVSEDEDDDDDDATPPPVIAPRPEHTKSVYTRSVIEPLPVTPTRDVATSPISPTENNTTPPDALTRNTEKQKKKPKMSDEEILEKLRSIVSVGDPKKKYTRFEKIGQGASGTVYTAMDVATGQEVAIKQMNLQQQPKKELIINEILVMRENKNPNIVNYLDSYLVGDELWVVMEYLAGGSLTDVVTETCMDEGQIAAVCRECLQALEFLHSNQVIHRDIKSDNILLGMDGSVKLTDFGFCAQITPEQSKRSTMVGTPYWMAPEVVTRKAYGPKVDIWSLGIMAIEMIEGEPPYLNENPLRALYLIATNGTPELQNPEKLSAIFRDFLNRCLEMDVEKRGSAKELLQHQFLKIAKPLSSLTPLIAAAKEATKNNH
# T1 sequence (Q96SW2 whole entry): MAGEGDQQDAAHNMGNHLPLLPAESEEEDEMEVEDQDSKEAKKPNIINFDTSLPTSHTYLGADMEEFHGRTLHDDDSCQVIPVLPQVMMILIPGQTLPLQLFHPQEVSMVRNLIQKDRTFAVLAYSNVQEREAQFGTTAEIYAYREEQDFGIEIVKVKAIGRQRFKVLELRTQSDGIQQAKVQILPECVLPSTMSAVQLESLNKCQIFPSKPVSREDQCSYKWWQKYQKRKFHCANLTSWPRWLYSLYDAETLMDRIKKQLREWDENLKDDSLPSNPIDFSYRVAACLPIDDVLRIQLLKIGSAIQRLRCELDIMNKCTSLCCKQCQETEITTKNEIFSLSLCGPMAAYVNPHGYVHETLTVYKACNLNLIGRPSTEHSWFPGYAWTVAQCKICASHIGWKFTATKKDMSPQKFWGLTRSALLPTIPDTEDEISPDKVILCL
# T1 sequence (Q16531 whole entry partner): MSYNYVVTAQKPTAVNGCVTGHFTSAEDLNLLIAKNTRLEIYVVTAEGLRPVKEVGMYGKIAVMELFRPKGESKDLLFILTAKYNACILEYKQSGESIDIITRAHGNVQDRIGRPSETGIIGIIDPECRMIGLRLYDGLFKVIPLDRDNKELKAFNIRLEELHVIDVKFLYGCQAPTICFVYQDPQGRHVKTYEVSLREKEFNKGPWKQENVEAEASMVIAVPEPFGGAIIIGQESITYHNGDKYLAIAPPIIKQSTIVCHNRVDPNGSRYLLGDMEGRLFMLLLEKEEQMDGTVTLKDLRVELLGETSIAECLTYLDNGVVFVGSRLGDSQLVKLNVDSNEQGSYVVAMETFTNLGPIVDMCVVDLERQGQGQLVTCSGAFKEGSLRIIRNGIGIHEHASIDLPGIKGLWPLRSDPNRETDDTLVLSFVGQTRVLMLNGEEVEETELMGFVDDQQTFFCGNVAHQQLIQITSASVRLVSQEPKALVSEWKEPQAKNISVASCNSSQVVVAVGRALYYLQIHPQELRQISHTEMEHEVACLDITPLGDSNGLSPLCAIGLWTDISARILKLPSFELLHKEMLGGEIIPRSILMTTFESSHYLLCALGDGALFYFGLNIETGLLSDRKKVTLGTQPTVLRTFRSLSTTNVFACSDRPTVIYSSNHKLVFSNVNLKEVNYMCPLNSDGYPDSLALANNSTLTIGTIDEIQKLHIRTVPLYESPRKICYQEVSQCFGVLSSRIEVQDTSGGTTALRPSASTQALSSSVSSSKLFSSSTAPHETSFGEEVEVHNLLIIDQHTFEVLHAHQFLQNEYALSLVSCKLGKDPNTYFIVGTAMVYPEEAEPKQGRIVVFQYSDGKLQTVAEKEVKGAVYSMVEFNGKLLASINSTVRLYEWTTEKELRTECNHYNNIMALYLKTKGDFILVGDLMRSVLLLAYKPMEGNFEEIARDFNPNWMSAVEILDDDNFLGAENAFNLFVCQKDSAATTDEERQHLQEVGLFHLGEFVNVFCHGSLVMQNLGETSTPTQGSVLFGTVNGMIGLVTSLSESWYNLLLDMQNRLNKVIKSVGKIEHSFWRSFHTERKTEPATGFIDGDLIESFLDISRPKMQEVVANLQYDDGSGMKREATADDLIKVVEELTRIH
smiles,measurement,setting,value
"O=C1CCC(N2C(=O)c3cccc(NCCCCCCCCNC(=O)N4CC[C@H](NC5=Nc6cc(F)ccc6N(CC(F)F)c6ccc(Cl)cc65)C4)c3C2=O)C(=O)N1 (stereo partly drawn) [BJG-05-039, (3S)-3-((2-Chloro-5-(2,2-difluoroethyl)-8-fluoro-5H-dibenzo[b,e][1,4]diazepin-11-yl)amino)-N-(8-((2-(2,6-dioxopiperidin-3-yl)-1,3-dioxoisoindolin-4-yl)amino)octyl)pyrrolidine-1-carboxamide]",Reduction in PAK1 expression,"[1]; 10 nM, HEK293 Nluc-PAK1 cells, 24 hours",approximately 70%
same,Concentration of half-maximal degradation of PAK1,[1]; HEK293 Nluc-PAK1 cells,low nM concentrations
same,Loss of the PAK1 protein,[1]; in the absence of drug efflux inhibitors,70%
same,remaining binding at 10 µM,[2],45%
same,remaining binding at 10 µM,[3],46%
same,remaining binding at 10 µM,[4],49%
same,remaining binding at 10 µM,[5],50%
same,remaining binding at 10 µM,[6],51%
same,remaining binding at 10 µM,[7],52%
same,remaining binding at 10 µM,[8],58%
same,remaining binding at 10 µM,[9],62%
same,remaining binding at 10 µM,[10],66%
same,remaining binding at 10 µM,[11],67%
same,remaining binding at 10 µM,[12],72%
same,remaining binding at 10 µM,[13],75%
same,remaining binding at 10 µM,[14],84%
same,remaining binding at 10 µM,[15],87%
same,remaining binding at 10 µM,[16],88%
same,remaining binding at 10 µM,[17],90%
same,remaining binding at 10 µM,[18],90%
same,remaining binding at 10 µM,[19],90%
same,Percent Control,[20],94
same,remaining binding at 10 µM,[21],94%
same,remaining binding at 10 µM,[22],94%
same,remaining binding at 10 µM,[23],96%
same,remaining binding at 10 µM,[24],98%
same,remaining binding at 10 µM,[25],99%
same,remaining binding at 10 µM,[26],100%
same,remaining binding at 10 µM,[27],100%
